Measured values from US6825231B2, “Substituted norbornylamino derivatives, processes for their preparation, their use as medicaments or diagnostics, and a medicament comprising them” (Aventis Pharma Deutschland GmbH, priority 1999, dated 2004).
Counter-ions that a name gives are not always drawn.

Columns and labels:
[1] = target: T1, Rat NHE3 (Rattus norvegicus, UniProt P26433); experiment: NHE activity measurement: pHi recovery after acid load in transfected LAP1 cells; assay type: cell-based; settings: pH recovery after acid load, 3 minutes
T1 construct: expressed in transfected cells
T1 sequence (P26433 29-831): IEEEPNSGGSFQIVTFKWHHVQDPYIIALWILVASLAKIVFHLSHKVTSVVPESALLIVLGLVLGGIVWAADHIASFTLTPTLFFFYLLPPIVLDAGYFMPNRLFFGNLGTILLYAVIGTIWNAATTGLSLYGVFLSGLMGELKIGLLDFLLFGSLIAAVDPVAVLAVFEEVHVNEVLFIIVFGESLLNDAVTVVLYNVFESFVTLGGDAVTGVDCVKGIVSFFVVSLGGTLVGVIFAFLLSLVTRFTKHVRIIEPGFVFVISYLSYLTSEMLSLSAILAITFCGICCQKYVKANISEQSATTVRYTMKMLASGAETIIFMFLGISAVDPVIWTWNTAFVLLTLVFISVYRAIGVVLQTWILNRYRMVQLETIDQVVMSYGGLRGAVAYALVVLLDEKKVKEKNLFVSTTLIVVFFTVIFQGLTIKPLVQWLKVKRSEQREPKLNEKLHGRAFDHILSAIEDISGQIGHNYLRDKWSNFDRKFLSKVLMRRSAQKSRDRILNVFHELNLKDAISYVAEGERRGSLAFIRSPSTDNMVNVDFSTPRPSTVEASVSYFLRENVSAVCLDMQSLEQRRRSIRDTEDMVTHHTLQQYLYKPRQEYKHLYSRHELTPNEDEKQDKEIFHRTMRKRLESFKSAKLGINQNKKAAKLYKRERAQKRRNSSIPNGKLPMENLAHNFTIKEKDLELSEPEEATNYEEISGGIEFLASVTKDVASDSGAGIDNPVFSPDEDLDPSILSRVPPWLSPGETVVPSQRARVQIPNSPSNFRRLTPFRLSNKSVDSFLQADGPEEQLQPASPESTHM
Description: Most molecular biology techniques follow protocols from the works “Current Protocols in Molecular Biology (eds. Ausubel, F. M., Brent, R., Kingston, R. E., Moore, D. D., Seidman, J. G., Smith, J. A. and Struhl, K.; John Wiley & Sons)” or: “Molecular Cloning: A Laboratory Manual (Sambrock, J., Fritsch, E. F. and Maniatis, T.; Cold Spring Harbor Laboratory Press (1989))”. In our studies, stable transfected cell lines were produced which in each case express one of the following NHE subtypes: NHE1 of man (Sardet et al. Cell 56, 271-280 (1989)), NHE2 of the rabbit (Tse et al. J. Biol. Chem. 268, 11917-11924 (1993)), NHE3 from humans (Brant et al. Am. J. Physiol. 269 (Cell Physiol. 38), C198-C206 (1995)) or NHE3 of the rat (Orlowski et al.; J. Biol. Chem. 267, 9331-9339 (1992)).
After adding suitable linker sequences, the cDNA clones of the respective NHE subtypes obtained by Prof. Pouyssegur were cloned into the expression plasmid pMAMneo (obtainable, for example, via CLONTECH, Heidelberg) such that the Nhel restriction endonuclease recognition sequence of the plasmid is approximately 20-100 base pairs before the start codon of the respective NHE subtype and the entire coding sequence is present in the construct. In the human NHE3 obtained from human kidney mRNA via RT-PCR, the RT-PCR primer were selected such that the resulting cDNA band had terminal restriction sites which matched pMAMneo.
Using the so-called “calcium phosphate method” (described in Chapter 9.1 of “Current Protocols in Molecular Biology”), the NHE-deficient cell line LAP1 (Franchi et al.; Proc. Natl. Acad. Sci. USA 83, 9388-9392 (1986)) was transfected with the plasmids which contain the respective coding sequences of the NHE subtypes. After selection of transfected cells by means of growth in G418-containing medium (only cells which as a result of transfection contain a neogene can survive under these conditions), a selection was made for functional NHE expression. To do this, the “Acid Load” technique described by Sardet was used (Sardet et al.; Cell 56, 271-280 (1989)). Cells which express a functioning NHE subtype can also compensate in the absence of CO2 and HCO3- for the acidification carried out during this test, but untransfected LAP1 cells cannot. After repetition of the “Acid Load” selection several times, the surviving cells were inoculated into microtiter plates such that statistically there should have been one cell per well. Under the microscope, a check was made after approximately 10 days as to how many colonies were growing per well. Cell populations of individual colonies were then investigated with respect to their viability after “Acid Load” using the XTT proliferation kit (Boehringer Mannheim). The best cell lines were used for the further tests, and to avoid a loss of the transfected sequence were cultured under continuous selection pressure in G418-containing medium.
To determine IC50-values for the inhibition of the individual NHE subtypes by specific substances, a test developed by S. Faber (Faber et al.; Cell. Physiol. Biochem. 6, 39-49 (1996)), which is based on the “Acid Load” technique, was slightly modified.
In this test, the recovery of the intracellular pH (pHi) after an acidification was determined, which commences with functioning NHE even under bicarbonate-free conditions. To do this, the pHi was determined using the pH-sensitive fluorescent dye BCECF (Calbiochem, the precursor BCECF-AM is employed). The cells were first loaded with BCECF. The BCECF fluorescence was determined in a “Ratio Fluorescence Spectrometer” (Photon Technology International, South Brunswick, N.J., USA) at excitation wavelengths of 505 and 440 nm and an emission wavelength of 535 nm and converted into the pHi by means of calibration curves. […]

[2] = test system: Caco 2 cells; experiment: Caco 2 model (transport across monolayers, absorbed fraction); assay type: in vitro ADME; settings: Caco 2 monolayers, apical to basolateral, assessed from Papp via calibration curve
Description: The Caco 2 cell line was obtained from the American Type Culture Collection (ATCC) and kept in Dulbecco's Modified Eagle Medium (high proportion of glucose), supplemented with non-essential amino acids, L-glutamine, penicillin/streptomycin, and 10% strength fetal calf serum, in an incubator under a 10% CO2 atmosphere at 95% relative atmospheric humidity and at 37° C. The cells were grown in cell culture flasks (175 cm^2). For the transport studies, the Caco 2 cells were inoculated onto polycarbonate cell culture inserts (COSTAR TRANSWELLS®, pore size: 3 μm, surface: 4.71 cm^2) at a cell density of 6.5×10^4 cells/cm^2 and incubated in six-well culture trays, changing the medium after four and eight days and then every other day. 21- to 25-day-old monolayers were used for the experiments.
In each test series, a 21-day-old monolayer was tested for its properties using ^3H-dextrane as permeability marker. The value of the transfer rate (cumulative) after 120 min had to be in the range of 2%.
The growth medium was removed from the apical and the basolateral side and the monolayers were then rinsed with the transport buffer (Hank's balanced salt solution pH 7.8; contains 2.8 g/l of glucose), and the cells were equilibrated at 37° C. under a 10% CO2 atmosphere for 15 min. The HBSS buffer is then removed.
The test compounds were dissolved in a mixture of HBSS buffer and DMSO and added to the apical buffer, giving a 1% strength (v/v) DMSO solution. The test concentration for the first experiment was 1 mM, that for the second experiment was 100 μM. The experiments were carried out at 37° C. and started by adding 1.5 ml of test solution on the donor side (apical). Transport buffer without compound was added to the recipient side (basolateral, 2.5 ml). […] Apical samples were taken at the start and at the end (120 min), so that the recovery rate of the compounds could be determined using these concentrations and the cumulative basolateral concentration. The compounds were analyzed by HPLC.
The apparent permeability coefficient (Papp) is calculated using the following equation: [formula]
in which dc/dt denotes the flow through the monolayer (μg of compound/(ml×s)), V denotes the liquid volume in the collection chamber (ml), A denotes the surface area of the monolayer (cm^2) and c0 denotes the initial concentration (μg of compound/ml) in the donor chamber. The flow through the monolayer was calculated from the cumulative basolateral concentration at the corresponding point of time using the initially linear data curve (linear up to 60 min). All determinations were carried out in three replications, so that the calculated Papp value is the mean of three measurements. […]

[3] = test system: male Wistar rats; experiment: Diuresis (salidiuresis) experiment in rats; assay type: in vivo, rat; settings: for Cl / K / Na: urine excretion; for Na/K / Osmolality: urine
Description: The salidiuresis experiment was carried out using male Wistar rats having a weight of 155 to 175 g. 16 hours before the start of the experiment, the feed, but not the drinking water, was withdrawn from the animals. The rats were randomized and placed into diuresis cages. […] The control group received, orally, the corresponding volume of drinking water as vehicle. The excretion of urine of each group for the first 5 hours and in the period from 6 to 24 hours was measured. The urine electrolytes sodium and potassium were determined by flame photometry (flame photometer Eppendorf, Hamburg), and chloride was determined potentiometrically (chloride meter Eppendorf). The osmolality of the urine was determined using the freezing-point depression method (osmometer Vogel, Gieβen). Urine and electrolyte excretion and osmolality are stated in ml/kg, mmol/kg, and mosmol/kg of body weight, respectively. The ratio of Na^+/K^+ is an indication of the quality of effect of a diuretic. The results given in the table are arithmetic means with standard deviation.

[4] = 50 mg/kg p.o., mean, 6-24 hours
[5] = 50 mg/kg p.o., mean, sum 1-24 hours

## COCCOc1cccc(CN[C@@H]2C[C@@H]3C[C@H]2[C@@H]2CCC[C@H]32)c1.Cl
other
  melting point: 134 °C

## COc1cccc(CNC2CC3CC2C2CCCC32)c1 (single isomer, unassigned; (-)) [(−)−6, (−)-(exo/endo)-(3-methoxybenzyl)(octahydro-4,7-methanoinden-5-yl)amine hydrochloride]
[1]; hydrochloride
  IC50: 1 µM

## CN(C)c1cccc(CN[C@@H]2C[C@@H]3C[C@H]2[C@@H]2CCC[C@H]32)c1.Cl
other
  melting point: 166 to 170 °C (dec.)

## COc1cccc(CN[C@@H]2CC3CC2[C@H]2CCC[C@@H]32)c1 (stereo partly drawn) [Example 8, (endo/endo)-(3-methoxybenzyl)(octahydro-4,7-methanoinden-5-yl)amine hydrochloride]
[1]
  IC50: 70 µM

## C/C(=C\c1cccc(/C=C(\C)C(=O)N=C(N)N)c1)C(=O)N=C(N)N.Cl.Cl [S 2120, reference compound]
[2]
  Absorbed fraction: <1%

## COc1cccc(CN[C@@H]2C[C@@H]3C[C@H]2[C@@H]2CCC[C@H]32)c1.Cl (racemic) [Example 5, rac-(exo/endo)-(3-methoxybenzyl)(octahydro-4,7-methanoinden-5-yl)amine hydrochloride]
[3]; 50 mg in 10 ml of drinking water/kg of BW p.o., n = 5, mean, 1-5 hours
  Urine: 12.39 mL/kg
[3]; 50 mg/kg orally, compared to the control
  salidiuretic effect (assessment): no salidiuretic effect
[3]; [4]
  Urine: 22.57 mL/kg
  Cl: 1.57 mmol/kg
  K: 3.57 mmol/kg
  Na: 1.29 mmol/kg
  Na/K: 0.37
  Osmolality: 30.51 mosmol/kg
[3]; [5]
  Urine: 34.96 mL/kg
  Cl: 2.17 mmol/kg
  K: 4.31 mmol/kg
  Na: 1.60 mmol/kg
  Na/K: 0.38
  Osmolality: 38.33 mosmol/kg
[3]; 50 mg/kg p.o., mean, 1-5 hours
  Cl: 0.60 mmol/kg
  K: 0.75 mmol/kg
  Na: 0.31 mmol/kg
  Na/K: 0.47
  Osmolality: 7.82 mosmol/kg
[2]
  Absorbed fraction: 100%
[1]
  IC50: 0.81 µM

## Cl.Fc1cccc(CN[C@@H]2C[C@@H]3C[C@H]2[C@@H]2CCC[C@H]32)c1 [Example 10, (exo/endo)-(3-fluorobenzyl)(octahydro-4,7-methanoinden-5-yl)amine hydrochloride]
[2]
  Absorbed fraction: 100%
[1]
  IC50: 0.9 µM

## O=C(O)c1cccc(CN[C@@H]2C[C@@H]3C[C@H]2[C@@H]2CCC[C@H]32)c1 [Example 14, (exo/endo)-3-[(octahydro-4,7-methanoinden-5-ylamino)-methyl]benzoic acid]
other
  melting point: 258 to 261 °C

## C/C(=C\c1ccc(C)cc1/C=C(\C)C(=O)N=C(N)N)C(=O)N=C(N)N.Cl.Cl [S 3226, reference compound]
[2]
  Absorbed fraction: <5%

## COc1cccc(CN[C@@H]2C[C@@H]3C[C@H]2[C@H]2CCC[C@@H]32)c1 (relative stereo) [Example 9, (exo/exo)-(3-methoxybenzyl)(octahydro-4,7-methanoinden-5-yl)amine hydrochloride]
[1]
  IC50: 5 µM

## COc1cccc(CCN[C@@H]2C[C@@H]3C[C@H]2[C@@H]2CCC[C@H]32)c1.Cl
other
  melting point: 222 to 225 °C

## COc1cccc(CCCN[C@@H]2C[C@@H]3C[C@H]2[C@@H]2CCC[C@H]32)c1.Cl
other
  melting point: 186 to 188 °C

## Cl.Ic1cccc(CN[C@@H]2C[C@@H]3C[C@H]2[C@@H]2CCC[C@H]32)c1
other
  melting point: 220 to 224 °C (dec.)

## COc1cccc(CN[C@@H]2CC3CC2[C@@H]2CCC[C@H]32)c1 (stereo partly drawn) [Example 7, (endo/exo)-(3-methoxybenzyl)(octahydro-4,7-methanoinden-5-yl)amine hydrochloride]
[1]
  IC50: 31 µM

## COc1cccc(CN[C@@H]2C[C@@H]3C[C@H]2[C@@H]2CCCC[C@H]32)c1.Cl
other
  melting point: 234 to 236 °C

## COc1cccc(CNC2CC3CC2C2CCCC32)c1 (single isomer, unassigned; (+)) [(+)−6, (+)-(exo/endo)-(3-methoxybenzyl)(octahydro-4,7-methanoinden-5-yl) amine hydrochloride]
[1]; hydrochloride
  IC50: 0.5 µM

## Brc1cccc(CN[C@@H]2C[C@@H]3C[C@H]2[C@@H]2CCC[C@H]32)c1.Cl
other
  melting point: 248 °C
